Experimental data reported in publication PMC2726771 (The Journal of neuroscience : the official journal of the …, 2009).
Values joined by “and” are separate entries in the source; they are usually repeats but may differ in a detail not shown here. Equal entries are not always repeated. Where two headings read alike, the source gives them in different places.

What was measured:
[1] = target: α3β2T150C nAChR (Rattus norvegicus, UniProt P04757+P12390, T176C); type: cell-based; details: for decrease of Mor potency / reduction of maximum Mor-evoked current (efficacy): after 100 μM reagent; for potentiation (IACh+Mor/IACh), sample traces Fig. 2: 300 μM ACh + 10 μM Mor; for potentiation: 10 μM Mor
[2] = target: α3T115Cβ2 nAChR (Rattus norvegicus, UniProt P04757+P12390, T142C); type: cell-based; details: for time constant τ of MTSET modification: response to 300 μM ACh + 10 μM Mor; for potentiation (IACh+Mor/IACh), sample traces Fig. 2: 300 μM ACh + 10 μM Mor
[3] = target: α3β2S148C nAChR (Rattus norvegicus, UniProt P04757+P12390, S174C); type: cell-based
[4] = target: T1, α3β2 wt nAChR (Rattus norvegicus, UniProt P04757+P12390); details: ref Wu et al., 2008, cited from earlier work
[5] = target: α3β2T193C nAChR (Rattus norvegicus, UniProt P04757+P12390, T219C); type: cell-based
[6] = target: T1, α3β2 wt nAChR; type: cell-based
[7] = target: α3S161Cβ2 nAChR (Rattus norvegicus, UniProt P04757+P12390, S188C); type: cell-based
[8] = target: α3β2S192C nAChR (Rattus norvegicus, UniProt P04757+P12390, S218C); type: cell-based
[9] = test system: α3E113R; details: ref Laureijs and Levandoski, unpublished; cited from earlier work
[10] = target: α3A106Cβ2 nAChR (Rattus norvegicus, UniProt P04757+P12390, A133C); type: cell-based
[11] = 100 μM MTSET + 200 μM ACh treatment, ACh + 10 μM Mor
[12] = 100 μM MTSET + 200 μM ACh, four 30-sec
[13] = 100 μM MTSET applied alone, 2 min
[14] = relative to response to ACh alone at [ACh] ~ EC50
[15] = after 2-min 100 μM MTSET co-applied with ACh
[16] = 100 μM MTSET co-applied with ACh, 2 min

Sequence of α3S161Cβ2 nAChR (P04757 26-499 S188C): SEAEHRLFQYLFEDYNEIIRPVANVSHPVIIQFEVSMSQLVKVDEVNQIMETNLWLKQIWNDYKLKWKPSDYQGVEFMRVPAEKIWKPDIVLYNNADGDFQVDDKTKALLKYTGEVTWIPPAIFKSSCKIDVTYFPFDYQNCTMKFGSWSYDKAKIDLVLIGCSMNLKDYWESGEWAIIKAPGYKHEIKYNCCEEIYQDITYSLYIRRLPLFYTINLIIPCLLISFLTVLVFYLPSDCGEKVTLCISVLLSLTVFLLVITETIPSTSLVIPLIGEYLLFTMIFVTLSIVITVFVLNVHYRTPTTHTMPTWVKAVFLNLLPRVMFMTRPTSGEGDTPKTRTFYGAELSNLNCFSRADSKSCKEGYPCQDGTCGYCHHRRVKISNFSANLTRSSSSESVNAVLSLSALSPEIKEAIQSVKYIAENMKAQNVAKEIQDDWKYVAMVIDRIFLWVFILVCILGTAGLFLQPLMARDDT
Sequence of α3S161Cβ2 nAChR (P12390 25-500, stated change not applied): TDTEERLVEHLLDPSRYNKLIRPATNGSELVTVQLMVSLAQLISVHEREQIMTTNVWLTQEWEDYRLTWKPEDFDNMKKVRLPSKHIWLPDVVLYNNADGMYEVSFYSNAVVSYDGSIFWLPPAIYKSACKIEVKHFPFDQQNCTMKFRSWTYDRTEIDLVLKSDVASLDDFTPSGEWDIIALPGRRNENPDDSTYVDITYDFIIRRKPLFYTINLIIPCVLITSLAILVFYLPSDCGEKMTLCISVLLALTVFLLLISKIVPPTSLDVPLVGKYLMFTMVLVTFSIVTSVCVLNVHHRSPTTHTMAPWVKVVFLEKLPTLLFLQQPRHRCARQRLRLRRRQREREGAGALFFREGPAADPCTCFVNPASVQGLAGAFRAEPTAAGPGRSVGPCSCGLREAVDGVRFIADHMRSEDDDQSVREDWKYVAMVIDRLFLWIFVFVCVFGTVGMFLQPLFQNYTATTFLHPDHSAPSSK
Sequence of α3A106Cβ2 nAChR (P04757 26-499 A133C): as the sequence (P04757 26-499 S188C) above, with A108C, C163S counted along it
Sequence of α3A106Cβ2 nAChR (P12390 25-500): as the sequence (P12390 25-500, stated change not applied) above
Sequence of α3T115Cβ2 nAChR (P04757 26-499 T142C): as the sequence (P04757 26-499 S188C) above, with T117C, C163S counted along it
Sequence of α3T115Cβ2 nAChR (P12390 25-500): as the sequence (P12390 25-500, stated change not applied) above
Sequence of α3β2T193C nAChR (P04757 26-499): as the sequence (P04757 26-499 S188C) above, with C163S counted along it
Sequence of α3β2T193C nAChR (P12390 25-500 T219C): as the sequence (P12390 25-500, stated change not applied) above, with T195C counted along it
Sequence of α3β2T150C nAChR (P04757 26-499): as the sequence (P04757 26-499 S188C) above, with C163S counted along it
Sequence of α3β2T150C nAChR (P12390 25-500 T176C): as the sequence (P12390 25-500, stated change not applied) above, with T152C counted along it
Sequence of α3β2S192C nAChR (P04757 26-499): as the sequence (P04757 26-499 S188C) above, with C163S counted along it
Sequence of α3β2S192C nAChR (P12390 25-500 S218C): as the sequence (P12390 25-500, stated change not applied) above, with S194C counted along it
Sequence of α3β2S148C nAChR (P04757 26-499): as the sequence (P04757 26-499 S188C) above, with C163S counted along it
Sequence of α3β2S148C nAChR (P12390 25-500 S174C): as the sequence (P12390 25-500, stated change not applied) above, with S150C counted along it
T1 sequence (P04757 26-499): as the sequence (P04757 26-499 S188C) above, with C163S counted along it
T1 sequence (P12390 25-500): as the sequence (P12390 25-500, stated change not applied) above

C[N+](C)(C)CCSS(C)(=O)=O.[Br-] [MTSET, [2-(trimethyl-ammonium)ethyl]methanesthiosulfonate bromide]
decrease in efficacy of ACh/Mor concentration-response curve [1, 11]: 50%
decrease in potency of ACh/Mor concentration-response curve [1, 11]: 3 fold
decrease in ACh efficacy (maximum response at high ACh) [1, 12]: 75%
decrease in ACh potency after MTSET/agonist co-application [1, 12]: 4.5 fold
decrease of Mor potency ([1]; four 30-sec doses): without changing the potency
reduction of maximum Mor-evoked current (efficacy) ([1]; four 30-sec doses): 75 - 80%
time constant τ of MTSET modification ([2]; 30 μM MTSET alone): 170 s and 167 ± 22 s
time constant τ of MTSET modification ([2]; 30 μM MTSET co-applied with 100 μM Mor): 720 s and 719 ± 137 s
time constant τ of MTSET modification ([2]; 30 μM MTSET co-applied with 300 μM ACh): 34 s and 34 ± 12 s
reduction of ACh-evoked currents ([2]; after 100 μM MTS reagent alone): unchanged
reduction of ACh/Mor-evoked currents ([2]; after 100 μM MTS reagent alone): 32 ± 9%
reduction of degree of potentiation ([2]; after 100 μM MTS reagent alone): 31 ± 8%
decrease of Mor efficacy ([2]; after 100 μM MTSET alone): 66%

Cc1ccsc1C=CC1=NCCCN1C.O=C(O)C(O)C(O)C(=O)O [Mor, 1,4,5,6-tetrahydro-1-methyl-2-(2-[3-methyl-2-thienyl]ethenyl)pyrimidine, tartrate salt]
EC50 [3]: 110 ± 40 µM
Mor Potentiation % Change after MTS [3, 13]: -7 ± 10%
Mor-evoked Response nH ([3]; Hill coefficient): 1.4 ± 0.5
Mor Potentiation IACh+Mor/IACh ([3]; [ACh] ~ EC50 ± 10 μM Mor): 4.9 ± 1.0
Mor-evoked Response Emax [3, 14]: 0.36 ± 0.05
Mor Potentiation % Change after MTS [1, 13]: * 52 ± 17%
Mor-evoked Response nH ([1]; Hill coefficient): 2.3 ± 0.2
EC50 ([1]; Mor EC50, Control, pre-treatment control, Fig. 7): 20 ± 2 µM
EC50 ([1]; Mor EC50 after BrACh, after 100 μM BrACh, four 30-sec doses): 30 ± 5 µM
EC50 ([1]; Mor EC50 after MTSBn, after 100 μM MTSBn, four 30-sec doses): 80 ± 20 µM
EC50 ([1]; Mor EC50 after MTSEA, after 100 μM MTSEA, four 30-sec doses): 30 ± 1 µM
EC50 ([1]; Mor EC50 after MTSET, after 100 μM MTSET, four 30-sec doses): 20 ± 4 µM
EC50 ([1]; Mor-evoked Response EC50, Mor as agonist): 26 ± 1 µM
Mor Potentiation IACh+Mor/IACh ([1]; [ACh] ~ EC50 ± 10 μM Mor): 1.6 ± 0.1
Mor nH after BrACh ([1]; after 100 μM BrACh): 1.5 ± 0.4
Mor Emax after BrACh ([1]; after 100 μM BrACh, normalized to pre-treatment 300 μM Mor response): 0.96 ± 0.07
Mor nH after MTSBn ([1]; after 100 μM MTSBn): 2.7 ± 1.5
Mor Emax after MTSBn ([1]; after 100 μM MTSBn, normalized to pre-treatment 300 μM Mor response): 0.56 ± 0.07
Mor nH after MTSEA ([1]; after 100 μM MTSEA): 2.3 ± 0.3
Mor Emax after MTSEA ([1]; after 100 μM MTSEA, normalized to pre-treatment 300 μM Mor response): 0.20 ± 0.01
Mor nH after MTSET ([1]; after 100 μM MTSET): 3.4 ± 1.9
Mor Emax after MTSET ([1]; after 100 μM MTSET, normalized to pre-treatment 300 μM Mor response): 0.24 ± 0.02
potentiation (IACh+Mor/IACh), sample traces Fig. 2 [1, 15]: 7.5
potentiation ([1]; measured at ~EC50 ACh, after MTSET treatment): 4.0
potentiation ([1]; measured at ~EC50 ACh, before MTSET treatment): 1.6
potentiation ([1]; measured at ~EC75 ACh, after MTSET treatment): 3.0
potentiation ([1]; measured at ~EC75 ACh, before MTSET treatment): 1.5
Mor Emax, Control ([1]; normalized to pre-treatment 300 μM Mor response): 1.00
potentiation (IACh+Mor/IACh), sample traces Fig. 2 ([1]; pre-MTSET): 3.3
I300 μM Mor/I300 μM ACh (pre) ([1]; pre-treatment): 0.14 ± 0.01
Mor nH, Control ([1]; pre-treatment control, Fig. 7): 2.2 ± 0.4
Mor-evoked Response Emax [1, 14]: 0.33 ± 0.04
Mor-evoked Response nH ([4]; Hill coefficient): 3.1 ± 1.6
Mor-evoked Response Emax [4, 14]: 0.2
EC50 [5]: 20 ± 3 µM
Mor Potentiation % Change after MTS [5, 16]: 2 ± 4%
Mor-evoked Response nH ([5]; Hill coefficient): 1.7 ± 0.3
Mor Potentiation IACh+Mor/IACh ([5]; [ACh] ~ EC50 ± 10 μM Mor): 1.5 ± 0.1
Mor-evoked Response Emax [5, 14]: 0.24 ± 0.1
EC50 [2]: 30 µM
potentiation IACh+Mor/I30 μM ACh ([2]; 30 μM ACh (~EC20)): 7.7
potentiation post/pre ([2]; 50 μM Mor included with the MTSET/300 μM ACh co-application): 1.05 ± 0.07
Mor Potentiation % Change after MTS ([2]; 100 μM MTSET co-applied with ACh (300 μM), 2 min): * -30 ± 4%
potentiation IACh+Mor/I300 μM ACh ([2]; 300 μM ACh (~EC50)): 2.2
Mor-evoked Response nH ([2]; Hill coefficient, pre MTSET in Fig. 8): 1.4 ± 0.1
Mor Potentiation IACh+Mor/IACh ([2]; [ACh] ~ EC50 ± 10 μM Mor): 2.3 ± 0.3
Mor nH post MTSET ([2]; after 100 μM MTSET alone, four 30-sec doses): 2.2 ± 1.4
Mor Emax post MTSET ([2]; after 100 μM MTSET alone, normalized to 300 μM ACh before modification): 0.1 and 0.10 ± 0.01
potentiation (IACh+Mor/IACh), sample traces Fig. 2 [2, 15]: 2.8
potentiation (IACh+Mor/IACh), sample traces Fig. 2 ([2]; pre-MTSET): 4.5
Mor-evoked Response Emax ([2]; relative to response to ACh alone at [ACh] ~ EC50 (300 μM), pre MTSET in Fig. 8): 0.3 and 0.29 ± 0.01
Mor Potentiation % Change after MTS [6, 16]: 3 ± 3%
Mor Potentiation IACh+Mor/IACh ([6]; [ACh] ~ EC50 ± 10 μM Mor): 1.9 ± 0.1
potentiation (IACh+Mor/IACh), sample traces Fig. 2 ([6]; pre-MTSET, 100 μM ACh + 10 μM Mor): 2.8
Mor Potentiation % Change after MTS [7, 13]: 3 ± 8%
Mor Potentiation IACh+Mor/IACh ([7]; [ACh] ~ EC50 ± 10 μM Mor): 1.3 ± 0.1
EC50 [8]: 20 ± 6 µM
change in Mor potentiation after MTSET alone ([8]; 100 μM MTSET alone, four 30-sec doses, 30 μM ACh): no change in potentiation outside of error
Mor-evoked Response nH ([8]; Hill coefficient): 1.8 ± 0.7
Mor Potentiation IACh+Mor/IACh ([8]; [ACh] ~ EC50 ± 10 μM Mor): 1.4 ± 0.1
Mor-evoked Response Emax [8, 14]: 0.08 ± 0.01
Mor potentiation [9]: completely abolishes Mor potentiation
EC50 [10]: 62 ± 11 µM
change in Mor potentiation after MTSET alone ([10]; 100 μM MTSET alone, four 30-sec doses, 100 μM ACh): no change in potentiation outside of error
Mor-evoked Response nH ([10]; Hill coefficient): 2.1 ± 0.7
Mor Potentiation IACh+Mor/IACh ([10]; [ACh] ~ EC50 ± 10 μM Mor): 1.7 ± 0.2
Mor-evoked Response Emax [10, 14]: 0.56 ± 0.05

CS(=O)(=O)SCc1ccccc1 [MTSBn, benzylmethanethiosulfonate]
decrease of Mor potency ([1]; four 30-sec doses): 4 fold
reduction of maximum Mor-evoked current (efficacy) ([1]; four 30-sec doses): 45%
potentiation post/pre ([2]; after 100 μM MTS reagent alone): 0.99 ± 0.10
reduction of ACh-evoked currents ([2]; after 100 μM MTS reagent alone): 29 ± 9%
reduction of ACh/Mor-evoked currents ([2]; after 100 μM MTS reagent alone): 30 ± 10%

CC(=O)OCC[N+](C)(C)C [ACh]
ACh Response nH ([3]; Hill coefficient): 0.79 ± 0.08
ACh nH, +Mor data set, pre-treatment ([1]; ACh + 10 μM Mor): 1.13 ± 0.24
ACh nH, +Mor data set, post-treatment ([1]; ACh + 10 μM Mor, after 100 μM MTSET + 200 μM ACh): 0.98 ± 0.02
ACh Emax, +Mor data set, pre-treatment ([1]; ACh + 10 μM Mor, normalized to ACh response at 1000 μM): 1.33 ± 0.05
ACh Response nH ([1]; Hill coefficient, pre-treatment in Fig. 4): 0.84 ± 0.06
ACh nH post-treatment ([1]; after 100 μM MTSET + 200 μM ACh): 0.79 ± 0.11
ACh Emax post-treatment ([1]; after 100 μM MTSET + 200 μM ACh, normalized to ACh response at 1000 μM): 0.26 ± 0.01
ACh Emax pre-treatment ([1]; normalized to ACh response at 1000 μM): 1.00
ACh Response nH ([5]; Hill coefficient): 0.74 ± 0.07
ACh Response nH ([2]; Hill coefficient): 0.96 ± 0.09
ACh Response nH ([6]; Hill coefficient): 0.82 ± 0.06
ACh Response nH ([7]; Hill coefficient): 0.77 ± 0.07
ACh Response nH ([8]; Hill coefficient): 0.57 ± 0.05
ACh Response nH ([10]; Hill coefficient): 0.64 ± 0.04

C[N+](C)(C)CCOC(=O)CBr [BrACh]
reduction of maximum Mor-evoked current (efficacy) ([1]; four 30-sec doses): very little effect
